Consider 23 molecules from ChEMBL document CHEMBL4304769, “Discovery of Potent and Orally Bioavailable Inverse Agonists of the Retinoic Acid Receptor-Related Orphan Receptor C2” (ACS Med Chem Lett, 2019).

Molecules are shown by their SMILES. Bounds are passed on as bounds.

A short description of the first series: physchem. Conditions: 1-octanol/PBS buffer, pH 7.4.
Usually logD stands for the decadic logarithm of the distribution of all forms, ionised or not, between an organic phase and buffer at a given pH. High values mean a more lipophilic compound, low ones a more hydrophilic compound. The molecule `CCS(=O)(=O)c1ccc(CC(=O)Nc2cc(-c3cccc(Cl)c3)cs2)cc1` displayed a logD greater than 4.1.

Consider `CCS(=O)(=O)c1ccc(C(NC(=O)Cc2ccnnc2)C(=O)Nc2ccc(C(O)(C(F)(F)F)C(F)(F)F)cc2)cc1` (configuration not stated), for which the logD turned out to be 2.9.

Take `CCS(=O)(=O)c1ccc(CC(=O)Nc2ccc(C(C(F)(F)F)C(F)(F)F)cc2)cc1`: the logD came out at 3.9.

Take `CCS(=O)(=O)c1ccc(C(NC(=O)Cc2ccncn2)C(=O)Nc2ccc(C(O)(C(F)(F)F)C(F)(F)F)cc2)cc1` (configuration not stated): the logD was determined as 2.8.

The molecule `CCS(=O)(=O)c1ccc(C(NC(=O)Cc2ccccn2)C(=O)Nc2ccc(C(O)(C(F)(F)F)C(F)(F)F)cc2)cc1` (configuration not stated) came in with a logD of 3.3.

For the molecule `CCS(=O)(=O)c1ccc(CC(=O)Nc2ccc(-c3cccc(Cl)c3)cc2)cc1`, the logD is greater than 4.

In the case of `CCS(=O)(=O)c1ccc(C(NC(=O)NC)C(=O)Nc2ccc(C(O)(C(F)(F)F)C(F)(F)F)cc2)cc1` (configuration not stated), the logD amounted to 3.2.

`CCS(=O)(=O)c1ccc(CC(=O)Nc2cccc(-c3cccc(Cl)c3)c2)cc1`: the logD was greater than 4.

`CCS(=O)(=O)c1ccc(C(NC(=O)Cc2ccccc2)C(=O)Nc2ccc(C(O)(C(F)(F)F)C(F)(F)F)cc2)cc1` (configuration not stated) showed a logD of 4.

In the case of `CCS(=O)(=O)c1ccc(C(NC(=O)OC)C(=O)Nc2ccc(C(O)(C(F)(F)F)C(F)(F)F)cc2)cc1` (configuration not stated), the logD amounted to 3.6.

With `CCS(=O)(=O)c1ccc(C(NC(=O)c2ccccc2)C(=O)Nc2ccc(C(O)(C(F)(F)F)C(F)(F)F)cc2)cc1` (configuration not stated), the logD was greater than 4.

`CCS(=O)(=O)c1ccc(C(NC(=O)Cc2cccnn2)C(=O)Nc2ccc(C(O)(C(F)(F)F)C(F)(F)F)cc2)cc1` (configuration not stated) displayed a logD of 2.5.

For `CCS(=O)(=O)c1ccc(C(NC(=O)CCc2ccccc2)C(=O)Nc2ccc(C(O)(C(F)(F)F)C(F)(F)F)cc2)cc1` (configuration not stated), the logD was greater than 4.

As to `CCS(=O)(=O)c1ccc(C(NC(=O)CC(C)C)C(=O)Nc2ccc(C(O)(C(F)(F)F)C(F)(F)F)cc2)cc1` (configuration not stated), the pH-dependent lipophilicity (logD) was greater than 4.

For `CCS(=O)(=O)c1ccc(CC(=O)Nc2ccc(C(OC)(C(F)(F)F)C(F)(F)F)cc2)cc1`, the logD came out at 4.

With `CCS(=O)(=O)c1ccc(CC(=O)Nc2ccc(C(O)(C(F)(F)F)C(F)(F)F)cc2)cc1`, the logD was 3.6.

Molecule `CCS(=O)(=O)c1ccc(CC(=O)Nc2ccc([C@H](O)C(F)(F)F)cc2)cc1` showed a logD of 2.1.

In the case of `CCS(=O)(=O)c1ccc(C(N)C(=O)Nc2ccc(C(O)(C(F)(F)F)C(F)(F)F)cc2)cc1` (configuration not stated), the log distribution coefficient (logD) is 2.8.

`CCS(=O)(=O)c1ccc(CC(=O)Nc2ccc(C(C)(C)C#N)cc2)cc1` returned a logD of 2.5.

For `CCS(=O)(=O)c1ccc(C(NC(=O)CC(C)(C)O)C(=O)Nc2ccc(C(O)(C(F)(F)F)C(F)(F)F)cc2)cc1` (configuration not stated), the logD came to 3.3.

The molecule `CCS(=O)(=O)c1ccc(CC(=O)Nc2ccc(C(C)C)cc2)cc1` registered a logD of 3.5.

Consider `CCS(=O)(=O)c1ccc(C(NS(C)(=O)=O)C(=O)Nc2ccc(C(O)(C(F)(F)F)C(F)(F)F)cc2)cc1` (configuration not stated), for which the logD worked out at 2.7.

A short description of a further series: in vivo. The settings on record: Wistar Han, rat, iv, 1 mg/kg.
The Vd is a proportionality between amount in the body and measured concentration, not a real space. `CCS(=O)(=O)c1ccc(C(NC(=O)Cc2ccccc2)C(=O)Nc2ccc(C(O)(C(F)(F)F)C(F)(F)F)cc2)cc1` (configuration not stated) displayed a Vd at 24 h of 10.2 L/kg.

With `CCS(=O)(=O)c1ccc(C(NC(C)=O)C(=O)Nc2cc(-c3cc(C#N)cc(F)c3OC)cs2)cc1` (racemic), the Vd at 24 h is 0.34 L/kg.

A further series is described as follows: in vitro. Conditions: human, Caco-2.
As a reminder, the Papp is the rate of passage across a membrane or cell layer, normalised by area and donor concentration. Low values mean poor permeation, high ones ready permeation. Regarding `CCS(=O)(=O)c1ccc(C(NC(C)=O)C(=O)Nc2cc(-c3cc(C#N)cc(F)c3OC)cs2)cc1` (racemic), the Papp amounted to 0.3 ×10⁻⁶ cm/s.

A short description of a further series: in vivo. Conditions: Wistar Han, rat, po, 2 mg/kg.
Broadly, the bioavailability is the share of a dose that reaches the circulation, judged against a reference dose that is usually intravenous. Read a high bioavailability as much systemic uptake. In the case of `CCS(=O)(=O)c1ccc(C(NC(=O)Cc2ccccc2)C(=O)Nc2ccc(C(O)(C(F)(F)F)C(F)(F)F)cc2)cc1` (configuration not stated), the bioavailability at 24 h turned out to be 5%.

Turning to `CCS(=O)(=O)c1ccc(C(NC(C)=O)C(=O)Nc2cc(-c3cc(C#N)cc(F)c3OC)cs2)cc1` (racemic), the bioavailability at 24 h came out at 19%.
